# Data: patent US9920010B2, “CXCR7 receptor modulators” (IDORSIA PHARMACEUTICALS LTD, priority 2013, dated 2018)
# pEC50: −log10 of the molar value.
# Target: T1, CXCR7 (Homo sapiens, UniProt P25106)
# T1 construct: host or cells: CHO-K1 (PathHunter CHO-K1 CXCR7 b-arrestin cell line, stably transfected)
# Test: PathHunter CHO-K1 CXCR7 b-arrestin recruitment assay (CXCR7 agonistic activity)
# Type: cell-based
# Settings: PathHunter CHO-K1 CXCR7 b-arrestin cell line
# Procedure, shortened: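 Stable CHO-K1 line with C-terminally ProLink-tagged CXCR7 and β-arrestin 2–EA fusion; β-arrestin recruitment restores β-gal activity, read by chemiluminescence after 1 h RT detection. Cells seeded 24 h, starved in OPTIMEM 3–4 h, exposed to compounds 90 min at 37 °C in HBSS/HEPES/BSA. Geometric-mean EC50 from repeated measurements.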
# T1 sequence (P25106 whole entry): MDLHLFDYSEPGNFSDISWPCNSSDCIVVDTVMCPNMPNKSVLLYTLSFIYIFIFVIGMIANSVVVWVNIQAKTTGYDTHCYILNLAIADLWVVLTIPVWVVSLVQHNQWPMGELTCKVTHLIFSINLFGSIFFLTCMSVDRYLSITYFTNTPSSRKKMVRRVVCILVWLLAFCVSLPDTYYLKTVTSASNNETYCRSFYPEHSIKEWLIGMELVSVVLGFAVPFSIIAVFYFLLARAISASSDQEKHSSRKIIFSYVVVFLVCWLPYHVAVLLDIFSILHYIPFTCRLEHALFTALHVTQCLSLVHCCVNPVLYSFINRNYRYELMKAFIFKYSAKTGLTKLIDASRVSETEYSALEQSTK
# T1 sequence (P32121 whole entry partner): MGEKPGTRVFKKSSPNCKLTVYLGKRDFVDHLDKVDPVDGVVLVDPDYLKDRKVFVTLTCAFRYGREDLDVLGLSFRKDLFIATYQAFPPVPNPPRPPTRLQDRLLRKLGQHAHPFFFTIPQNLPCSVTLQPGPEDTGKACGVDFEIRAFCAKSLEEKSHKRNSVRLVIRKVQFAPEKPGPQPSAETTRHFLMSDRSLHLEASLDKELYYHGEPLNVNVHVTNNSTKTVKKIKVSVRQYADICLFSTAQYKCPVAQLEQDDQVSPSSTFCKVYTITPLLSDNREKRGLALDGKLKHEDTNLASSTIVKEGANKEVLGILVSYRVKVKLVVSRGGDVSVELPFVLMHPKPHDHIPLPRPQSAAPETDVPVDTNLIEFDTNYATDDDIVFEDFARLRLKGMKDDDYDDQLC
row,Structure (SMILES),pEC50
1,"CN1CCCC1CCN(Cc1ccccc1C(F)(F)F)C(=O)CNc1cccc2c1CCN(CC1CC1)C2 (centres unmarked) [Example 213, 2-(2-Cyclopropylmethyl-1,2,3,4-tetrahydro-isoquinolin-5-ylamino)-N-[2-(1-methyl-pyrrolidin-2-yl)-ethyl]-N-(2-trifluoromethyl-benzyl)-acetamide]",8.70
2,"O=C(CNc1cccc2c1CCN(CC1CC1)C2)N(CCCN1CCCC1)Cc1ccccc1C(F)(F)F [Example 214, 2-(2-Cyclopropylmethyl-1,2,3,4-tetrahydro-isoquinolin-5-ylamino)-N-(3-pyrrolidin-1-yl-propyl)-N-(2-trifluoromethyl-benzyl)-acetamide]",8.52
3,"CN(CCN(Cc1ncccc1C(F)(F)F)C(=O)CNc1cccc2c1CCN(CC1CC1)C2)C(=O)OC(C)(C)C [Example 215, {2-[[2-(2-Cyclopropylmethyl-1,2,3,4-tetrahydro-isoquinolin-5-ylamino)-acetyl]-(3-trifluoromethyl-pyridin-2-ylmethyl)-amino]-ethyl}-methyl-carbamic acid tert-butyl ester]",6.97
4,"CC(C)(C)OC(=O)N1CCN(CCN(Cc2ccccc2C(F)(F)F)C(=O)CNc2cccc3c2CCN(CC2CC2)C3)CC1 [Example 216, 4-{2-[[2-(2-Cyclopropylmethyl-1,2,3,4-tetrahydro-isoquinolin-5-ylamino)-acetyl]-(2-trifluoromethyl-benzyl)-amino]-ethyl}-piperazine-1-carboxylic acid tert-butyl ester]",7.47
5,"O=C(CNc1cccc2c1CCN(CC1CC1)C2)N(CCN1CCCCC1)Cc1ccccc1C(F)(F)F [Example 217, 2-(2-Cyclopropylmethyl-1,2,3,4-tetrahydro-isoquinolin-5-ylamino)-N-(2-piperidin-1-yl-ethyl)-N-(2-trifluoromethyl-benzyl)-acetamide]",8.70
6,"O=C(CNc1cccc2c1CCN(CC1CC1)C2)N(CCN1CCCCCC1)Cc1ccccc1C(F)(F)F [Example 218, N-(2-Azepan-1-yl-ethyl)-2-(2-cyclopropylmethyl-1,2,3,4-tetrahydro-isoquinolin-5-ylamino)-N-(2-trifluoromethyl-benzyl)-acetamide]",8.70
7,"CC(C)N(CCN(Cc1ccccc1C(F)(F)F)C(=O)CNc1cccc2c1CCN(CC1CC1)C2)C(C)C [Example 219, 2-(2-Cyclopropylmethyl-1,2,3,4-tetrahydro-isoquinolin-5-ylamino)-N-(2-diisopropylamino-ethyl)-N-(2-trifluoromethyl-benzyl)-acetamide]",8.52
8,"CN(CCN(Cc1ccccc1C(F)(F)F)C(=O)CNc1cccc2c1CCN(CC1CC1)C2)C1CC1 [Example 220, N-[2-(Cyclopropyl-methyl-amino)-ethyl]-2-(2-cyclopropylmethyl-1,2,3,4-tetrahydro-isoquinolin-5-ylamino)-N-(2-trifluoromethyl-benzyl)-acetamide]",8.52
9,"CN(C)CCN(Cc1cccc(OC(F)(F)F)c1)C(=O)CNc1cccc2c1CCN(CC1CC1)C2 [Example 221, 2-(2-Cyclopropylmethyl-1,2,3,4-tetrahydro-isoquinolin-5-ylamino)-N-(2-dimethylamino-ethyl)-N-(3-trifluoromethoxy-benzyl)-acetamide]",8.05
10,"O=C(CNc1cccc2c1CCN(CC1CC1)C2)N(Cc1ccccc1C(F)(F)F)C1CCC(O)CC1 (centres unmarked) [Example 222, 2-(2-Cyclopropylmethyl-1,2,3,4-tetrahydro-isoquinolin-5-ylamino)-N-(4-hydroxy-cyclohexyl)-N-(2-trifluoromethyl-benzyl)-acetamide]",7.57
11,"COCC(O)CN(Cc1ccccc1C(F)(F)F)C(=O)CNc1cccc2c1CCN(CC1CC1)C2 (centres unmarked) [Example 223, 2-(2-Cyclopropylmethyl-1,2,3,4-tetrahydro-isoquinolin-5-ylamino)-N-(2-hydroxy-3-methoxy-propyl)-N-(2-trifluoromethyl-benzyl)-acetamide]",8.00
12,"O=C(CNc1cccc2c1CCN(CC1CC1)C2)N(CCC(F)(F)F)Cc1ccccc1C(F)(F)F [Example 224, 2-(2-Cyclopropylmethyl-1,2,3,4-tetrahydro-isoquinolin-5-ylamino)-N-(2-trifluoromethyl-benzyl)-N-(3,3,3-trifluoro-propyl)-acetamide]",7.28
13,"COCCN(Cc1ccccc1C(F)(F)F)C(=O)CNc1cccc2c1CCN(CC1CC1)C2 [Example 225, 2-(2-Cyclopropylmethyl-1,2,3,4-tetrahydro-isoquinolin-5-ylamino)-N-(2-methoxy-ethyl)-N-(2-trifluoromethyl-benzyl)-acetamide]",7.54
14,"O=C(CNc1cccc2c1CCN(CC1CC1)C2)N(Cc1ccccc1C(F)(F)F)CC1COCCO1 (centres unmarked) [Example 226, 2-(2-Cyclopropylmethyl-1,2,3,4-tetrahydro-isoquinolin-5-ylamino)-N-[1,4]dioxan-2-ylmethyl-N-(2-trifluoromethyl-benzyl)-acetamide]",7.89
15,"CN(C)CCN(Cc1ccccc1OC(F)(F)F)C(=O)CNc1cccc2c1CCN(CC1CC1)C2 [Example 227, 2-(2-Cyclopropylmethyl-1,2,3,4-tetrahydro-isoquinolin-5-ylamino)-N-(2-dimethylamino-ethyl)-N-(2-trifluoromethoxy-benzyl)-acetamide]",8.22
16,"CN(C)CCN(Cc1ccc(OC(F)(F)F)cc1)C(=O)CNc1cccc2c1CCN(CC1CC1)C2 [Example 228, 2-(2-Cyclopropylmethyl-1,2,3,4-tetrahydro-isoquinolin-5-ylamino)-N-(2-dimethylamino-ethyl)-N-(4-trifluoromethoxy-benzyl)-acetamide]",6.93
17,"CS(=O)(=O)CCN(Cc1ccccc1C(F)(F)F)C(=O)CNc1cccc2c1CCN(CC1CC1)C2 [Example 229, 2-(2-Cyclopropylmethyl-1,2,3,4-tetrahydro-isoquinolin-5-ylamino)-N-(2-methanesulfonyl-ethyl)-N-(2-trifluoromethyl-benzyl)-acetamide]",7.42
18,"CS(=O)(=O)NCCN(Cc1ccccc1C(F)(F)F)C(=O)CNc1cccc2c1CCN(CC1CC1)C2 [Example 230, 2-(2-Cyclopropylmethyl-1,2,3,4-tetrahydro-isoquinolin-5-ylamino)-N-(2-methanesulfonylamino-ethyl)-N-(2-trifluoromethyl-benzyl)-acetamide]",7.09
19,"CCN(C)CCN(Cc1ccccc1C(F)(F)F)C(=O)CNc1cccc2c1CCN(CC1CC1)C2 [Example 231, 2-(2-Cyclopropylmethyl-1,2,3,4-tetrahydro-isoquinolin-5-ylamino)-N-[2-(ethyl-methyl-amino)-ethyl]-N-(2-trifluoromethyl-benzyl)-acetamide]",9.00
20,"CCN(CCN(Cc1ccccc1C(F)(F)F)C(=O)CNc1cccc2c1CCN(CC1CC1)C2)C(=O)OC(C)(C)C [Example 232, {2-[[2-(2-Cyclopropylmethyl-1,2,3,4-tetrahydro-isoquinolin-5-ylamino)-acetyl]-(2-trifluoromethyl-benzyl)-amino]-ethyl}-ethyl-carbamic acid tert-butyl ester]",6.79
21,"NS(=O)(=O)CCN(Cc1ccccc1C(F)(F)F)C(=O)CNc1cccc2c1CCN(CC1CC1)C2 [Example 233, 2-(2-Cyclopropylmethyl-1,2,3,4-tetrahydro-isoquinolin-5-ylamino)-N-(2-sulfamoyl-ethyl)-N-(2-trifluoromethyl-benzyl)-acetamide]",7.14
22,"CN(C)CCN(Cc1ccccc1Br)C(=O)CNc1cccc2c1CCN(CC1CC1)C2 [Example 234, N-(2-Bromo-benzyl)-2-(2-cyclopropylmethyl-1,2,3,4-tetrahydro-isoquinolin-5-ylamino)-N-(2-dimethylamino-ethyl)-acetamide]",8.52
23,"CN(CCN(Cc1ccccc1Br)C(=O)CNc1cccc2c1CCN(CC1CC1)C2)C(=O)OC(C)(C)C [Example 235, (2-{(2-Bromo-benzyl)-[2-(2-cyclopropylmethyl-1,2,3,4-tetrahydro-isoquinolin-5-ylamino)-acetyl]-amino}-ethyl)-methyl-carbamic acid tert-butyl ester]",6.97
24,"CN(C)CCN(Cc1ncccc1Br)C(=O)CNc1cccc2c1CCN(CC1CC1)C2 [Example 236, N-(3-Bromo-pyridin-2-ylmethyl)-2-(2-cyclopropylmethyl-1,2,3,4-tetrahydro-isoquinolin-5-ylamino)-N-(2-dimethylamino-ethyl)-acetamide]",8.52
25,"CN(C)CCN(Cc1cccc(Br)c1)C(=O)CNc1cccc2c1CCN(CC1CC1)C2 [Example 237, N-(3-Bromo-benzyl)-2-(2-cyclopropylmethyl-1,2,3,4-tetrahydro-isoquinolin-5-ylamino)-N-(2-dimethylamino-ethyl)-acetamide]",8.30
26,"CN(C)CCN(Cc1ccc(Br)cc1)C(=O)CNc1cccc2c1CCN(CC1CC1)C2 [Example 238, N-(4-Bromo-benzyl)-2-(2-cyclopropylmethyl-1,2,3,4-tetrahydro-isoquinolin-5-ylamino)-N-(2-dimethylamino-ethyl)-acetamide]",7.37
27,"CN(C)CCN(Cc1ccncc1Br)C(=O)CNc1cccc2c1CCN(CC1CC1)C2 [Example 239, N-(3-Bromo-pyridin-4-ylmethyl)-2-(2-cyclopropylmethyl-1,2,3,4-tetrahydro-isoquinolin-5-ylamino)-N-(2-dimethylamino-ethyl)-acetamide]",7.64
28,"CC(C)(O)CN(Cc1ccccc1C(F)(F)F)C(=O)CNc1cccc2c1CCN(CC1CC1)C2 [Example 241, 2-(2-Cyclopropylmethyl-1,2,3,4-tetrahydro-isoquinolin-5-ylamino)-N-(2-hydroxy-2-methyl-propyl)-N-(2-trifluoromethyl-benzyl)-acetamide]",8.10
29,"O=C(CNc1cccc2c1CCN(CC1CC1)C2)N(Cc1ccccc1C(F)(F)F)CC1(O)CCCC1 [Example 243, 2-(2-Cyclopropylmethyl-1,2,3,4-tetrahydro-isoquinolin-5-ylamino)-N-(1-hydroxy-cyclopentylmethyl)-N-(2-trifluoromethyl-benzyl)-acetamide]",8.10
